Assay results: patent US6821965B1, “Amidobenzamide derivatives which are useful as cytokine inhibitors” (AsterZeneca AB, priority 1998, dated 2004)

Key:
p38α = target: T1, p38α (Homo sapiens, UniProt Q16539); assay: In vitro enzyme assay, p38α kinase; format: biochemical; details: approximate value; read-out: IC50 against p38α
T1 construct: c-myc (N); 6His (N); made in house; host or cells: E. coli (PET vectors)
Description: The ability of compounds of the invention to inhibit the enzyme p38 kinase was assessed. Activity of test compounds against each of the p38α and p38β isoforms of the enzyme was determined.
Human recombinant MKK6 (GenBank Accesion Number G1209672) was isolated from Image clone 45578 (Genomics 1996, 33, 151) and utilised to produce protein in the form of a GST fusion protein in a pGEX vector using analogous procedures to those disclosed by J. Han el al., Journal of Biological Chemistry, 1996, 271, 2886-2891. p38α (GenBank Accession Number G529039) and p38β (GenBank Accession Number G1469305) were isolated by PCR amplification of human lymphoblastoid cDNA (GenBank Accession Number GM1416) and human foetal brain cDNA [synthesised from mRNA (Clontech, catalogue no. 6525-1) using a Gibco superscript cDNA synthesis kit] respectively using oligonucleotides designed for the 5′ and 3′ ends of the human p38α and p38β genes using analogous procedures to those described by J. Han et al., Biochimica et Biophysica Acta, 1995, 1265, 224-227 and Y. Jiang et al., Journal of Biological Chemistry 1996, 271, 17920-17926.
Both p38 protein isoforms were expressed in e coli in PET vectors. Human recombinant p38α and p38β isoforms were produced as 5′ c-myc, 6His tagged proteins. Both MKK6 and the p38 proteins were purified using standard protocols: the GST MKK6 was purified using a glutathione sepharose column and the p38 proteins were purified using nickel chelate columns.
The p38 enzymes were activated prior to use by, incubation with MKK6 for 3 hours at 30° C. The unactivated coli-expressed MKK6 retained sufficient activity to fully activate both isoforms of p38. The activation incubate comprised p38α (10 μl of 10 mg/ml) or p38β (10 μl of 5 mg/ml) together with MKK6 (10 μl of 1 mg/ml), ‘Kinase buffer’ [100 μl; pH 7.4 buffer comprising Tris (50 mM), EGTA (0.1 mM), sodium orthovanadate (0.1 mM) and β-mercaptoethanol (0.1%)] and MgATP (30 μl of 50 mM Mg(OCOCH3)2 and 0.5 mM ATP). This produced enough activated p38 enzyme for 3 Microtiter plates.
Test compounds were solubilised in DMSO and 10 μl of a 1:10 diluted sample in ‘Kinase Buffer’ was added to a well in a Microtiter plate. For single dose testing, the compounds were tested at 10 μM. ‘Kinase Assay Mix’ [30 μl; comprising Myelin Basic Protein (Gibco BRL cat no. 1322B-θ10; 1 ml of a 3.33 mg/ml solution in water), activated p38 enzyme (50 μl) and ‘Kinase Buffer’ (2 ml)] was then added followed by ‘Labelled ATP’ [10 μl; comprising 50 μM ATP, 0.1 μCi^33P ATP (Amersham International cat. no. BF 1000) and 50 mM Mg(OCOCH3)21]. The plates were incubated at room temperature with gentle agitation. Plates containing p38α were incubated for 90 min and plates containing p38β were incubated for 45 min. Incubation was stopped by the addition of 50 μl of 20% trichloroacetic acid (TCA). The precipitated protein was phosphorylated by p38 kinase and test compounds were assessed for their ability to inhibit this phosphorylation. The plates were filtered using a Canberra Packard Unifilter and washed with 2% TCA, dried overnight and counted on a Top Count scintillation counter.
Test compounds were tested initially at a single dose and active compounds were retested to allow IC50 values to be determined.

[1] = system: TNFα production by human peripheral blood mononuclear cells; assay: PBMC test: LPS-stimulated TNFα production; format: cell-based; details: approximate value
Description: The ability of compounds of this invention to inhibit TNFα production was assessed by using human peripheral blood mononuclear cells which synthesise and secrete TNFα when stimulated with lipopolysaccharide.
Peripheral blood mononuclear cells (PBMC) were isolated from heparinised (10 units/ml heparin) human blood by density centrifugation (Lymphoprep™; Nycomed). Mononuclear cells were resuspended in culture medium [RPMI 1640 medium (Gibco) supplemented with 50 units/ml penicillin, 50 μg/ml streptomycin, 2 mM glutamine and 1% heat-inactivated human AB serum (Sigma H-1513)]. Compounds were solubilised in DMSO at a concentration of 50 mM, diluted 1:100 in culture medium and subsequently serial dilutions were made in culture medium containing 1% DMSO. PBMCs (2.4×10^5 cells in 160 μl culture medium) were incubated with 20 μl of varying concentrations of test compound (triplicate cultures) or 20 μl culture medium containing 1% DMSO (control wells) for 30 minutes at 37° C. in a humidified (5% CO2/95% air) incubator (Falcon 3072; 96 well flat-bottom tissue culture plates). 20 μl lipopolysaccharide [LPS E. Coli 0111:B4 (Sigma L-4130), final concentration 10 μg/ml] solubilised in culture medium was added to appropriate wells. 20 μl culture medium was added to “medium alone” control wells. Six “LPS alone” and four “medium alone” controls were included on each 96 well plate. Varying concentrations of a known TNFα inhibitor were included in each test, i.e. an inhibitor of the PDE Type IV enzyme (for example see Semmler, J. Wachtel. H and Endres, S., Int. J. Immunopharmac. (1993), 15(3), 409-413) or an inhibitor of proTNFα convertase (for example, see McGeehan, G. M. el al. Nature (1994) 370, 558-561). Plates were incubated for 7 hours at 37° C. (humidified incubator) after which 100 μl of the supernatant was removed from each well and stored at −70° C. (96 well round-bottom plates; Corning 25850). TNFα levels were determined in each sample using a human TNFα ELISA (see WO92/10190 and Current Protocols in Molecular Biology, vol 2 by Frederick M. Ausbel et al., John Wiley and Sons Inc.). […]

[2] = system: TNFα production in human whole blood; assay: Human Whole Blood (HWB) test: LPS-stimulated TNFα production; format: cell-based; details: approximate value
Description: The ability of the compounds of this invention to inhibit TNFα production was also assessed in a human whole blood assay. Human whole blood secretes TNFα when stimulated with LPS. This property of blood forms the basis of an assay which is used as a secondary test for compounds which profile as active in the PBMC test.
Heparinised (10 units/ml) human blood was obtained from volunteers. 160 μl whole blood were added to 96 well round-bottom plates (Corning 25850). Compounds were solubilised and serially diluted in RPMI 1640 medium (Gibco) supplemented with 50 units/ml penicillin, 50 μg/ml streptomycin and 2 mM glutamine, as detailed above. 20 μl of each test concentration was added to appropriate wells (triplicate cultures). 20 μl of RPMI 1640 medium supplemented with antibiotics and glutamine was added to control wells. Plates were incubated for 30 minutes at 37° C. (humidified incubator), prior to addition of 20 μl LPS (final concentration 10 μg/ml). RPMI 1640 medium was added to control wells. Six “LPS alone” and four “medium alone” controls were included on each plate. A known TNFαsynthesis/secretion inhibitor was included in each test. Plates were incubated for 6 hours at 37° C. (humidified incubator). Plates were centrifuged (2000 rpm for 10 minutes) and 100 μl plasma removed and stored at −70° C. (Corning 25850 plates). TNFα levels were measured by ELISA (see WO92/10190 and Current Protocols in Molecular Biology, vol 2 by Frederick M. Ausbel et al., John Wiley and Sons Inc.). The paired antibodies that were used in the ELIZA were obtained from R&D Systems (catalogue nos. MAB610 anti-human TNFα coating antibody, BAF210 biotinylated anti-human TNFα detect antibody).

T1 sequence (Q16539 whole entry): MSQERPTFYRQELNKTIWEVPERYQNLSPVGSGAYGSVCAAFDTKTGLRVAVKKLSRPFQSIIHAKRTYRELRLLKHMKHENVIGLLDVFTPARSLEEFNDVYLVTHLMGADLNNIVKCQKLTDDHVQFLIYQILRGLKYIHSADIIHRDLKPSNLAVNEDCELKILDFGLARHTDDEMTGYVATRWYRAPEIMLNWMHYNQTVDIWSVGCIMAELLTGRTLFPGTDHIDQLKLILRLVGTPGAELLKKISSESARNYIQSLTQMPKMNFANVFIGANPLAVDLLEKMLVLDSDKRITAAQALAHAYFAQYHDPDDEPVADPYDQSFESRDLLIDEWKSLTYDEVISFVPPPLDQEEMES

IC50 (p38α) [nM] | IC50 [1] [nM] | IC50 [2] [nM] | Compound
~1000 | ~8000 |  | COc1ccc(C(=O)Nc2cc(C(=O)NCCC3CCCCC3)ccc2C)cc1OC [Example 11, N-(2-cyclohexylethyl)-3-(3,4-dimethoxybenzamido)-4-methylbenzamide]
~700 | ~22000 |  | Cc1ccc(C(=O)Nc2cccc(N(C)C)c2)cc1NC(=O)c1ccc2ncccc2c1 [Example 12, N-(3-dimethylaminophenyl)-4-methyl-3-(6-quinolylcarbonylamino)benzamide]
~50 |  | ~5000 | Cc1ccc(C(=O)Nc2cccc(N3CCOCC3)c2)cc1NC(=O)c1cccc(CN2CCN(C)CC2)c1 [Example 30, 4-methyl-3-[3-(4-methylpiperazin-1-ylmethyl)benzamido]-N-(3-morpholinophenyl)benzamide]
~300 | ~6000 |  | CCCc1ccc(C(=O)Nc2cc(C(=O)Nc3cccc(N(C)C)c3)ccc2C)cc1 [Example 3, Compound No. 1, N-(3-dimethylaminophenyl)-4-methyl-3-(4-propylbenzamido)benzamide]
~300 |  | ~15000 | CCN(CC)Cc1ccc(C(=O)Nc2cc(C(=O)Nc3cccc(N4CCOCC4)c3)ccc2C)cc1 [Example 31(4), 4-methyl-3-(4-diethylaminomethylbenzamido)-N-(3-morpholinophenyl)benzamide]
~50 |  | ~2000 | Cc1ccc(C(=O)Nc2cccc(N3CCOCC3)c2)cc1NC(=O)c1cccc(OC2CCNCC2)c1 [Example 20, 4-methyl-N-(3-morpholinophenyl)-3-(3-piperidin-4-yloxybenzamido)benzamide]
